The species entered for test [1] is Homo sapiens. Put plainly: Inhibition of human topoisomerase-2 assessed as reduction in relaxation of supercoiled pBR322 DNA at 100 uM after 30 mins by ethidium bromide staining based agarose gel electrophoresis method.
The subject of test [2] is ZR-75-30. The experiment in a line: Antiproliferative activity against human ZR-7530 cells after 72 hrs by MTT assay. In kind it is functional, cell-based.
In test [3] the test system is A549.
Description: (§1) Antiproliferative activity against human A549 cells after 72 hrs by MTT assay
The subject of test [4] is HCT-116. The experiment in a line: cells. Conditions: Homo sapiens, HCT-116, 72 h.
Description: (§2) Antiproliferative activity against human HCT116 cells after 72 hrs by MTT assay
Test [5] is described as follows: Inhibition of human topoisomerase-2 assessed as reduction in relaxation of supercoiled pBR322 DNA after 30 mins by ethidium bromide staining based agarose gel electrophoresis method.
The subject of test [6] is HCT-116.
Description: as §2
The species entered for test [7] is Homo sapiens. The experiment in a line: Inhibition of human topoisomerase-2 assessed as reduction in relaxation of supercoiled pBR322 DNA at 50 uM after 30 mins by ethidium bromide staining based agarose gel electrophoresis method.
Test [8] deals with A549. The experiment in a line: cells. The following applies: Homo sapiens, A549, 72 h.
Description: as §1
The mark [9] stands for this setting: Homo sapiens, ZR-75-30, 72 h, read-out: IC50.

Active and inactive are the calls of the source. The calls are words filed in the database; no cut-off is given here.

As to `O=C(O)COc1ccc(/C=N/n2c(COc3ccccc3)nc3ccccc3c2=O)cc1`, the inhibition result in test [1] was “Active”. Moreover, the IC50 is 58 µM in test [2] (setting [9]), “Not Active” in test [3] and 54 µM in test [4].

As for `Cc1cc(C(=O)O)ccc1-c1ccc(/C=c2/sc3nc4ccccc4n3c2=O)o1`, in test [1], the inhibition entry was “Active”. For the same compound, the IC50 in test [5] was 41 µM; in test [2] (zr-75-30) it was “Not Active”; in test [3] it was “Not Active”; in test [6], “Not Active”.

Turning to `O=C(O)c1ccc2c(c1)C(=O)N(c1ccc(C(=O)OCC(=O)c3ccccc3)cc1)C2=O`, the inhibition result in test [1] is “Active”. The half-maximal inhibitory concentration (IC50) entry in test [2] (zr-75-30), in test [3] and in test [6] was “Not Active” in each case.

Consider `COc1cc([C@@H]2c3cc4c(cc3[C@@H](O[C@@H]3O[C@@H]5CO[C@@H](C)O[C@H]5[C@H](O)[C@H]3O)[C@H]3COC(=O)[C@H]23)OCO4)cc(OC)c1O` [ETOPOSIDE], for which the inhibition entry in test [1] was “Active”. The inhibition result in test [7] is “inactive”. For the same compound, the IC50 amounted to 184 µM in test [5], 1.5 µM in test [2] (setting [9]), 68 µM in test [8] and 1.1 µM in test [4].

Consider `COc1ccc(-c2cc(-c3ccccc3)c(C#N)c(SCC(=O)O)n2)cc1`, for which, in test [1], the inhibition entry was “Active”. Moreover, the IC50 in test [2] (setting [9]) was determined as 14 µM; in test [8] it was 37 µM; in test [4] it was 10 µM.

Consider `N#Cc1c(-c2ccc(F)cc2)cc(-c2ccccc2)nc1SCC(=O)NCC(=O)O`, for which the inhibition result in test [1] was “Active”. Further, the concentration for half-maximal inhibition (IC50) result in test [2] (zr-75-30), in test [3] and in test [6] was “Not Active” throughout.

For `O=C(O)CCSc1nnc(-c2cccnc2)n1CCc1ccccc1`, the 50% inhibitory concentration (IC50) entry in test [2] (zr-75-30), in test [3] and in test [6] was “Not Active” each time.

Take `COc1ccc(C(=O)Cn2c(=N)n(Cc3ccc(C)cc3)c3ccccc32)cc1`: in test [1], the inhibition result was “Active”. Further, the half-inhibitory concentration (IC50) turned out to be 1.2 µM in test [2] (setting [9]), 1.2 µM in test [8] and 1 µM in test [4].

In the case of `C=CCn1c(CN2c3ccccc3Sc3ccccc32)nnc1SCC(=O)O`, the 50% inhibitory concentration (IC50) was 15 µM in test [2] (setting [9]), “Not Active” in test [3] and 32 µM in test [4].

Turning to `CC(C)(O)C#Cc1cc(C(=O)NCCc2ccc(S(N)(=O)=O)cc2)c2oc(C(C)(C)O)cc2c1`, the inhibition entry in test [1] is “Active”. The IC50 is 349 µM in test [5], 62 µM in test [2] (setting [9]), “Not Active” in test [3] and “Not Active” in test [6].

Turning to `NS(=O)(=O)c1ccc(NC(=O)CSc2nnc3ccc4ccccc4n23)cc1`, the 50% inhibitory concentration (IC50) result in test [2] (zr-75-30), in test [3] and in test [6] was “Not Active” in each case.

In the case of `O=C(O)CCc1nn2c3ccccc3n(Cc3ccccc3)c2nc1=O`, the inhibition entry in test [1] was “Active”. Further, the 50% inhibitory concentration (IC50) entry in test [2] (zr-75-30), in test [3] and in test [6] was “Not Active” throughout.
